Legend:
Type in all cases: cell-based
[1] = target: T1, adenosine 1 (Homo sapiens, UniProt P30542); test: Agonist activity against adenosine receptor subtypes, CHO cells with cAMP response element/SPAP reporter (forskolin-enhanced cAMP); details: ratio to EC50 of NECA; transfected CHO cells; effect on forskolin-enhanced cAMP via SPAP
T1 sequence (P30542 1-326): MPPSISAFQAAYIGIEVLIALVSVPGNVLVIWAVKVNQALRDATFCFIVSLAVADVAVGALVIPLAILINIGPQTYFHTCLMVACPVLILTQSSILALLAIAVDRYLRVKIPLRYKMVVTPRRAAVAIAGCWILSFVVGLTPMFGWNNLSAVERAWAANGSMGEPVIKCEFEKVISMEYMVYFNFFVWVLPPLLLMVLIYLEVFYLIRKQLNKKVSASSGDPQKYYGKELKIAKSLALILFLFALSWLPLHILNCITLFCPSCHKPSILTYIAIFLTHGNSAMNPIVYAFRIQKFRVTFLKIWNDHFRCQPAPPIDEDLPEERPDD
Experimental: (§1) Compounds of the invention were tested for in vitro and in vivo biological activity in accordance with the following screens: • (1) Agonist activity against adenosine 2a, adenosine 1 and adenosine 3 receptor subtypes.
(§2) Agonist selectivity of compounds against other human adenosine receptors was determined using Chinese hamster ovary (CHO) cells transfected with the gene for the relevant human adenosine receptor following a method based on that of Castanon and Spevak, 1994 . The CHO cells were also transfected with cyclic AMP response elements promoting the gene for secreted placental alkaline phosphatase (SPAP) (Wood, 1995). The effect of test compounds was determined by their effects on basal levels of cAMP (A2a) or on forskolin-enhanced cAMP (A1 and A3) as reflected by changes in levels of SPAP. EC50 values for compounds were then determined as a ratio to that of the non-selective agonist N-ethyl carboxamide adenosine (NECA).

[2] = target: T2, adenosine 3 (Homo sapiens, UniProt P0DMS8); test: as above; details: ratio to EC50 of NECA; transfected CHO cells; effect on forskolin-enhanced cAMP via SPAP
T2 sequence (P0DMS8 1-318): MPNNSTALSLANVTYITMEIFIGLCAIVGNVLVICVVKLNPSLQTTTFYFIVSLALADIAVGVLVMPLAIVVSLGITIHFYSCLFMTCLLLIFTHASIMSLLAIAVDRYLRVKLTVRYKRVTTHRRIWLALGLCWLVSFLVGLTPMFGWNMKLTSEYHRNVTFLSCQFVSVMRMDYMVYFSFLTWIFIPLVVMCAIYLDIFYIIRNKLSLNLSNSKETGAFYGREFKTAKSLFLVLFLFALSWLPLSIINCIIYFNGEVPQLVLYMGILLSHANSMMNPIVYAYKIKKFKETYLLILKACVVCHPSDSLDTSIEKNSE
Experimental: as §1, §2

[3] = target: adenosine 2a (Homo sapiens, UniProt P29274); test: Agonist activity against adenosine receptor subtypes, CHO cells with cAMP response element/SPAP reporter (basal cAMP); details: ratio to EC50 of NECA; transfected CHO cells; effect on basal cAMP via SPAP
Experimental: as §1, §2

Chain of adenosine 2a (P29274 whole entry): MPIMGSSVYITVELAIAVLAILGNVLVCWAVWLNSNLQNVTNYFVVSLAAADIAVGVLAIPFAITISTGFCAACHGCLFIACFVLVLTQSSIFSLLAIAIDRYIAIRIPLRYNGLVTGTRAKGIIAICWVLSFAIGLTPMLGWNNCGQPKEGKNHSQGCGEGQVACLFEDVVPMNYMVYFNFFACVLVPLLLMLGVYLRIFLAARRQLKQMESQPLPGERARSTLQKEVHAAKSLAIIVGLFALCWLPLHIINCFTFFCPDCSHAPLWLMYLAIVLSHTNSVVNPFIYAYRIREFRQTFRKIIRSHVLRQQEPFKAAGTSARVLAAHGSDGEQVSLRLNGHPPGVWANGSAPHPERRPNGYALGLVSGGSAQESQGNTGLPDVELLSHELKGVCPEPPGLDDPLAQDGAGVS

SMILES | A1 (EC50 values as a ratio of that of NECA) [1] | A3 (EC50 values as a ratio of that of NECA) [2] | A2a (EC50 values as a ratio of that of NECA) [3]
CCc1nnc([C@H]2O[C@@H](n3cnc4c(NCC(c5ccccc5)c5ccccc5)nc(N[C@H](CO)Cc5ccccc5)nc43)[C@H](O)[C@@H]2O)o1.O=CO [Example 21, (2R,3R,4S,5S)-2-[6-(2,2-Diphenyl-ethylamino)-2-(1S-hydroxymethyl-2-phenyl-ethylamino)-purin-9-yl]-5-(5-ethyl-[1,3,4]oxadiazol-2-yl)-tetrahydro-furan-3,4-diol formate] | 568.06 | >173 | 3.04
CCc1nnc([C@H]2O[C@@H](n3cnc4c(NCC(c5ccccc5)c5ccccc5)nc(NCCN5CCOCC5)nc43)[C@H](O)[C@@H]2O)o1.O=CO [Example 23, (2R,3R,4S,5S)-2-[6-(2,2-Diphenyl-ethylamino)-2-(2-morpholin-4-yl-ethylamino)-purin-9-yl]-5-(5-ethyl-[1,3,4]oxadiazol-2-yl)-tetrahydro-furan-3,4-diol formate] | 101.96 | >180 | 6.16
CCc1nc([C@H]2O[C@@H](n3cnc4c(NCC(c5ccccc5)c5ccccc5)nc(NCCNC(=N)N)nc43)[C@H](O)[C@@H]2O)no1.O=CO.O=CO [Example 29, N-(2-{6-(2,2-Diphenyl-ethylamino)-9-[5R-(5-ethyl-[1,2,4]oxadiazol-3-yl)-3R,4S-dihydroxy-tetrahydro-furan-2R-yl]-9H-purin-2-ylamino}-ethyl)-guanidine diformate] | >2147 | >284 | 30.7
Cc1nnc([C@H]2O[C@@H](n3cnc4c(NCC(c5ccccc5)c5ccccc5)nc(NCCc5cn(C)cn5)nc43)[C@H](O)[C@@H]2O)s1.O=CO.O=CO [Example 19, (2R,3R,4S,5S)-2-{6-(2,2-Diphenyl-ethylamino)-2-[2-(1-methyl-1H-imidazol-4-yl)-ethylamino]-purin-9-yl}-5-(5-methyl-[1,3,4]thiadiazol-2-yl)-tetrahydro-furan-3,4-diol diformate] | 3172 | >293 | 4.05
Cc1cnc([C@H]2O[C@@H](n3cnc4c(NCC(c5ccccc5)c5ccccc5)nc(N[C@@H]5CCNC5)nc43)[C@H](O)[C@@H]2O)o1.O=CO.O=CO [Example 18, (2R,3R,4S,5S)-2-[6-(2,2-Diphenyl-ethlyamino)-2-(pyrrolidin-3R-ylamino)-purin-9-yl]-5-(5-methyl-oxazol-2-yl)-tetrahydro-furan-3,4-diol diformate] | 5515 | >223 | 18.9
CCc1nc([C@H]2O[C@@H](n3cnc4c(NCC(c5ccccc5)c5ccccc5)nc(N[C@H](CO)Cc5ccccc5)nc43)[C@H](O)[C@@H]2O)no1.O=CO [Example 16, (2R,3R,4S,5R)-2-[6-(2,2-Diphenyl-ethylamino)-2-(1S-hydroxymethyl-2-phenyl-ethylamino)-purin-9-yl]-5-(5-ethyl-[1,2,4]oxadiazol-3-yl)-tetrahydro-furan-3,4-diol formate] | 4514.96 | >257 | 5.75
CCc1nc([C@H]2O[C@@H](n3cnc4c(NCC(c5ccccc5)c5ccccc5)nc(N[C@H]5CC[C@H](N)CC5)nc43)[C@H](O)[C@@H]2O)no1.O=CO.O=CO (relative stereo) [Example 12, (2R,3R,4S,5R)-2-[2-(trans-4-Amino-cyclohexylamino)-6-(2,2-diphenyl-ethylamino)-purin-9-yl]-5-(5-ethyl-[1,2,4]oxadiazol-3-yl)-tetrahydro-furan-3,4-diol diformate] | >8841 | >194 | 4.77
CCc1nnc([C@H]2O[C@@H](n3cnc4c(NCC(c5ccccc5)c5ccccc5)nc(N[C@H]5CC[C@H](N)CC5)nc43)[C@H](O)[C@@H]2O)o1.O=CO [Example 25, (2R,3R,4S,5S)-2-[2-(trans-4-Amino-cyclohexylamino)-6-(2,2-diphenyl-ethylamino)-purin-9-yl]-5-(5-ethyl-[1,3,4]oxadiazol-2-yl)-tetrahydro-furan-3,4-diol formate] | 398.28 | >136 | 4.81
CCc1nnc([C@H]2O[C@@H](n3cnc4c(NCC(c5ccccc5)c5ccccc5)nc(N[C@H](CO)C(C)C)nc43)[C@H](O)[C@@H]2O)[nH]1.O=CO [Example 7, (2R,3R,4S,5R)-2-[6-(2,2-Diphenyl-ethylamino)-2-(1S-hydroxymethyl-2-methyl-propylamino)-purin-9-yl]-5-(5-ethyl-4H-[1,2,4]triazol-3-yl)-tetrahydro-furan-3,4-diol formate] | 5327 | >183 | 2.94
CCn1cnc([C@H]2O[C@@H](n3cnc4c(NCC(c5ccccc5)c5ccccc5)nc(NCCN5CCCCC5)nc43)[C@H](O)[C@@H]2O)n1.O=CO.O=CO [Example 32, (2R,3R,4S,5R)-2-[6-(2,2-Diphenyl-ethylamino)-2-(2-piperidin-1-yl-ethylamino)-purin-9-yl]-5-(1-ethyl-1H-[1,2,4]triazol-3-yl)-tetrahydro-furan-3,4-diol diformate] | 1217.4 | >206 | 11.85
CCc1nnc([C@H]2O[C@@H](n3cnc4c(NCC(c5ccccc5)c5ccccc5)nc(N[C@@H]5CCNC5)nc43)[C@H](O)[C@@H]2O)o1.O=CO [Example 26, (2R,3R,4S,5S)-2-[6-(2,2-Diphenyl-ethylamino)-2-(pyrrolidin-3R-ylamino)-purin-9-yl]-5-(5-ethyl-[1,3,4]oxadiazol-2-yl)-tetrahydro-furan-3,4-diol formate] | 432 | >162 | 5.57
CCc1nnc([C@H]2O[C@@H](n3cnc4c(NCC(c5ccccc5)c5ccccc5)nc(NCCc5ccccn5)nc43)[C@H](O)[C@@H]2O)[nH]1.O=CO [Example 27, (2R,3R,4S,5R)-2-[6-(2,2-Diphenyl-ethylamino)-2-(2-pyridin-2-yl-ethylamino)-purin-9-yl]-5-(5-ethyl-4H-[1,2,4]triazol-3-yl)-tetrahydro-furan-3,4-diol formate] | 135.9 | >183 | 21.8

Source: patent EP1090023B1 (GLAXO GROUP LIMITED, priority 1998, dated 1999)
